For orientation: IC50 means the concentration needed to halve the response being measured. A low value points to greater potency.

We go through 16 molecules from patent US20130324542A1, “[1,2,4]TRIAZOLO[4,3-B][1,2,4]TRIAZINE COMPOUNDS, PREPARATION METHOD AND USE THEREOF” (SHANGHAI INSTITUTE OF MATERIA MEDICA, CHINESE ACADEMY OF …, priority 2010, published 2013).

One assay concerns NIH3T3 background cells. The experiment in a line: Cell proliferation, SRB assay, NIH3T3 background cells as control. Type of assay: cell-based. The conditions noted are these: Mus musculus, NIH3T3, 72 h, read-out: inhibition rate (%) on proliferation of NIH3T3 background cells. How it is done:
NIH3T3/TPR-Met cells in the logarithmic growth phase and NIH3T3 background cells were seeded in a 96-well microcuture plate at 90111_, per well and cultivated overnight, followed by addition of 104 of the compound at different concentrations. Three concentrations were set, and for each concentration, the test was carried out in triplicate wells. 72 h later, the culture medium was removed. The residue was fixed by precooled 10% TCA at 4° C. for 1 h, washed by distilled water for 5 times and dried at room temperature. After that, 4 mg/mL of sulforodamine B (SRB) in 1% glacial acetic acid was added to each well (1004 per well) for staining at room temperature for 15 min. The excess dye was removed by washed with 1% glacial acetic acid for 5 times and dried in air. At last, 150 μL of Tris-HCL solution (10 mM Tris, pH 10.0) was added to each well. OD values were measured on a multi-well spectrophotometer at […].

A further assay deals with c-Met tyrosine kinase (Homo sapiens, UniProt P08581). Description: c-Met kinase activity on molecular level (ELISA, Poly(Glu,Tyr)4:1 substrate). The conditions noted are these: ATP 5 μM, 37° C., 1 h. Type of assay: biochemical. On the procedure:
Poly(Glu, Tyr)4:1 as an enzyme substrate was diluted by potassium ion-free PBS (10 mM, sodium phosphate buffer, 150 mM NaCl, pH7.2-7.4) into a solution of 20 μg/ml. […] After the liquid in wells was removed, the plate was washed three time by T-PBS (PBS solution containing 0.1% Tween-20) at 200 μl/well, 5 min for each time. The ELISA plate was then dried in an oven at 37° C. for 1-2 h.
Each well was added with 50 μL of ATP solution diluted by reaction buffer (50 mM HEPES pH 7.4, 50 mM MgCl2, 0.5 mM MnCl2, 0.2 mM Na3VO4, 1 mM DTT) at a final concentration of 5 μM. Compound diluted by 1% DMSO into a suitable concentration was added at 10 μl/well and then c-Met tyrosine kinase protein diluted by 40 μl of reaction buffer was added. The plate was placed on a shaking table (100 rpm) at 37° C. and incubated for 1 h, and then washed three times by T-PBS. For each assay, triplicate wells without enzyme were used as blank control and wells having the corresponding DMSO concentration without compound were used as negative control. Primary antibody PY99 (p-Tyr (PY99), Cell Signaling Technology, 1:1000 diluted in 5 mg/mL BSA T-PBS) was added at 100 μl/well. The plate was then placed on a shaking table at 37° C. and incubated for 0.5 h, and washed by T-PBS. Secondary antibody horseradish peroxidase-conjugated goat anti-mouse IgG (1:2000 diluted in 5 mg/mL BSA T-PBS) was added at 100 μl/well. The plate was then placed on a shaking table at 37° C. for 0.5 h and washed three times by T-PBS. 2 mg/mL of OPD developer (diluted by a 0.1M citric acid-sodium citrate buffer (pH=5.4) containing 0.03% of H2O2) was added at 100 μl/well, and the plate was kept in dark at 25° C. for 1-10 min. OPD was ultrasonically dissolved and the developer solution was prepared just before use. 2 M of H2SO4 was added at 50 μl/well to stop the reaction. The plate was read using a wavelength regulated multi-well spectrophotometer (SPECTRA MAX 190) at 490 nm.
The inhibition rate was calculated according to the following equation:
Inhibition rate (%)=(1−(ODcompound−ODblank)/(ODnegative−ODblank))×100%
IC50 value was calculated through a four-parameter fit according to the inhibition curve.
(An ELISA detects its analyte on a solid surface through an enzyme-linked reagent.)

A further assay has as its system NIH3T3/TPR-Met cells. Description: Cell proliferation mediated by c-Met, SRB assay, NIH3T3/TPR-Met cells. In kind it is cell-based. The note with it: Mus musculus, NIH3T3, 72 h, read-out: inhibition rate (%) on proliferation of NIH3T3/TPR-Met cells. How it is done: Three concentrations were set, and for each concentration, the test was carried out in triplicate wells. 72 h later, the culture medium was removed. The residue was fixed by precooled 10% TCA at 4° C. for 1 h, washed by distilled water for 5 times and dried at room temperature. […] The excess dye was removed by washed with 1% glacial acetic acid for 5 times and dried in air. At last, 150 μL of Tris-HCL solution (10 mM Tris, pH 10.0) was added to each well.
For orientation: In SRB staining, fixed cells bind dye roughly in proportion to their protein.

SMILES strings stand for the structures.

Chain of c-Met tyrosine kinase (P08581 25-1390): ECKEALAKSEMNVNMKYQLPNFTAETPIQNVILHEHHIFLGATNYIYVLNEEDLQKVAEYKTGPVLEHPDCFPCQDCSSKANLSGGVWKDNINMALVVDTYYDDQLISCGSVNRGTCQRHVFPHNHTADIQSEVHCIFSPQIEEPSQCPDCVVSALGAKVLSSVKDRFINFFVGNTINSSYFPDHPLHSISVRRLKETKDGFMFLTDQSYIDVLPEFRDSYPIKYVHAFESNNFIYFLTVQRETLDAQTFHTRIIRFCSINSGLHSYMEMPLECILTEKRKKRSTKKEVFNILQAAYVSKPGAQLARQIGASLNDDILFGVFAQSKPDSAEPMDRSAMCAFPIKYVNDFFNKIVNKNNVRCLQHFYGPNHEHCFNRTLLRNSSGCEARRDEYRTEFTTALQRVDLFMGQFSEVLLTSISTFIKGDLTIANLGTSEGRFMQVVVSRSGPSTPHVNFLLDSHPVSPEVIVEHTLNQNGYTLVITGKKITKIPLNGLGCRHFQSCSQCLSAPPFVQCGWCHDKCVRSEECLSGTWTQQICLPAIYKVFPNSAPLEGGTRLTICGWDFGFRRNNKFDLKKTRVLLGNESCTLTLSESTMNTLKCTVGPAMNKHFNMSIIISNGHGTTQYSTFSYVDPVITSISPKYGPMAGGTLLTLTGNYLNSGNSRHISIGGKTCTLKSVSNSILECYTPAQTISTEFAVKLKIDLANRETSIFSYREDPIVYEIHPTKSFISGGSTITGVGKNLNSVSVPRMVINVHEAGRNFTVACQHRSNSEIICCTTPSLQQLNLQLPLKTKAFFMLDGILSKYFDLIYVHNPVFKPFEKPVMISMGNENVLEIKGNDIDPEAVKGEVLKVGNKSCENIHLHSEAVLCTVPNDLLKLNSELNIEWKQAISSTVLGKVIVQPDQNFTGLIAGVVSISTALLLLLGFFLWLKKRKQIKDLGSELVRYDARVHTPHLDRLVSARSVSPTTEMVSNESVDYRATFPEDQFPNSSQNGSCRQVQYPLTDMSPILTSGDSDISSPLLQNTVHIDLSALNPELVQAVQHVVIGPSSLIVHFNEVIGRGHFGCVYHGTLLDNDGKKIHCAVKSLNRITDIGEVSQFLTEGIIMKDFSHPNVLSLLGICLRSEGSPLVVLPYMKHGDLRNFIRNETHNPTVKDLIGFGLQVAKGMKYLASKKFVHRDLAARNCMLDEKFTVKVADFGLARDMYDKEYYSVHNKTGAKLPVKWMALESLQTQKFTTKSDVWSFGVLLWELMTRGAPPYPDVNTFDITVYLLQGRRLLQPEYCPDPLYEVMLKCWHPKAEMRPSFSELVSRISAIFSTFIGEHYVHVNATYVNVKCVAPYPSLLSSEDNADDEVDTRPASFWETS

In the case of `c1ccc(COc2ccc(-c3cnc4nnc(Cc5ccc6ncccc6c5)n4n3)cc2)cc1` [Compound I-2, 3-(6-quinolylmethyl)-6-(4-benzyloxyphenyl)-[1,2,4]triazolo[4,3-b][1,2,4]triazine], in the assay with NIH3T3 background cells, the inhibition at 1 µM came out at 16.2%, the inhibition at 10 µM came to 28.4% and the inhibition at 50 µM stood at 33.1%.

The molecule `CCCn1cc(-c2cnc3nnc(Cc4c[nH]c5ccccc45)n3n2)cn1` [Compound I-9, 3-(3-indolylmethyl)-6-[(1-propyl)-4-pyrazolyl]-[1,2,4]triazolo[4,3-b][1,2,4]triazine] displayed an IC50 against c-Met tyrosine kinase of 223 nM. Moreover, in the assay on NIH3T3/TPR-Met cells, the inhibition at 1 µM is 5%, the inhibition at 10 µM was found to be 9.4% and the inhibition at 50 µM came out at 67.5%. In the assay on NIH3T3 background cells, the inhibition at 1 µM was found to be 17.8%, the inhibition at 10 µM was 22.7% and the inhibition at 50 µM worked out at 37.3%.

As for `Brc1ccc(-c2cnc3nnc(Cc4ccc5ncccc5c4)n3n2)cc1` [Compound I-17, 3-(6-quinolylmethyl)-6-(4-bromophenyl)-[1,2, 4]triazolo[4,3-b][1,2,4]triazine], in the assay on NIH3T3 background cells, the inhibition at 1 µM amounted to 24.9%, the inhibition at 10 µM amounted to 35.9% and the inhibition at 50 µM turned out to be 34.9%.

On to `c1ccc(COc2ccc(-c3cnc4nnc(Cc5c[nH]c6ccccc56)n4n3)cc2)cc1` [Compound I-18, 3-(3-indolylmethyl)-6-(4-bnzyloxyphenyl)-[1,2,4]triazolo[4,3-b][1,2,4]triazine], for which, in the assay with NIH3T3 background cells, the inhibition at 1 µM turned out to be 17.5%, the inhibition at 10 µM is 20.8% and the inhibition at 50 µM came out at 28.7%.

`CC(C)(C)OC(=O)N1CCC(n2cc(-c3cnc4nnc(C(F)(F)c5ccc6ncccc6c5)n4n3)cn2)CC1` [Compound I-20, 3-[(6-quinolyl)difluoromethyl]-6-[1-(1-tert-butoxycarbonyl-4-piperidyl)-4-pyrazolyl]-[1,2,4] triazolo[4,3-b][1,2,4]triazine]: the IC50 against c-Met tyrosine kinase came to 7.9 nM. Besides, in the assay with NIH3T3/TPR-Met cells, the inhibition at 1 µM came to 81.2%, the inhibition at 10 µM was found to be 87.8% and the inhibition at 50 µM is 86.5%. Also, in the assay on NIH3T3 background cells, the inhibition at 1 µM turned out to be 18.8%, the inhibition at 10 µM was determined as 25.8% and the inhibition at 50 µM was found to be 38.6%.

`FC(F)(c1ccc2ncccc2c1)c1nnc2ncc(-c3cnn(C4CCNCC4)c3)nn12` [Compound I-21, 3-[(6-quinolyl)difluoromethyl]-6-[1-(4-piperidyl)-4-pyrazolyl]-[1,2,4]triazolo[4,3-b][1,2,4] triazine] showed a concentration for half-maximal inhibition (IC50) against c-Met tyrosine kinase of 81.6 nM. Moreover, in the assay on NIH3T3/TPR-Met cells, the inhibition at 1 µM turned out to be 6%, the inhibition at 10 µM worked out at 76.8% and the inhibition at 50 µM was 85.1%. In the assay on NIH3T3 background cells, the inhibition at 1 µM stood at 12%, the inhibition at 10 µM turned out to be 25.5% and the inhibition at 50 µM is 28.4%.

For `FC(F)(c1ccc2ncccc2c1)c1nnc2ncc(-c3ccc(OCc4ccccc4)cc3)nn12` [Compound I-24, 3-[(6-quinolyl)difluoromethyl]-6-(4-benzyloxy-phenyl)-[1,2,4]triazolo[4,3-b][1,2,4]triazine], inhibition at c-Met tyrosine kinase was half-maximal at 2.9 nM (IC50). In the assay on NIH3T3/TPR-Met cells, the inhibition at 1 µM is 83.5%, the inhibition at 10 µM turned out to be 87.7% and the inhibition at 50 µM came to 87.2%. Besides, in the assay on NIH3T3 background cells, the inhibition at 1 µM amounted to 16.9%, the inhibition at 10 µM came to 23.6% and the inhibition at 50 µM was determined as 32.8%.

For `COc1ccc2c(OCc3nnc4ncc(-c5ccc(Cl)cc5)nn34)ccnc2c1` [II-2, 3-[(7-methoxy-4-quinolyl)oxymethyl]-6-(4-chlorophenyl)-[1,2,4]triazolo[4,3-b][1,2,4]triazine], the IC50 on c-Met tyrosine kinase was 0.37 nM. The inhibition at 10 µM in the assay with NIH3T3/TPR-Met cells turned out to be 79%; in the assay on NIH3T3 background cells it was 21%.

Regarding `COc1ccc2c(OCc3nnc4ncc(-c5ccc(Br)cc5)nn34)ccnc2c1` [II-3, 3-[(7-methoxy-4-quinolyl)oxymethyl]-6-(4-bromophenyl)-[1,2,4]triazolo[4,3-b][1,2,4]triazine], the IC50 against c-Met tyrosine kinase was found to be 0.23 nM. For the same molecule, the values for the inhibition at 10 µM in the assay with NIH3T3/TPR-Met cells and in the assay with NIH3T3 background cells were 77.3% and 33.8%, respectively.

Consider `COc1ccc2c(OCc3nnc4ncc(-c5cccs5)nn34)ccnc2c1` [II-4, 3-[(7-methoxy-4-quinolyl)oxymethyl]-6-(2-thienyl)-[1,2,4]triazolo[4,3-b][1,2,4]triazine], for which the IC50 on c-Met tyrosine kinase came to 20.1 nM. Further, the inhibition at 10 µM in the assay on NIH3T3/TPR-Met cells is 80.6%; in the assay with NIH3T3 background cells it was 0%.

For the molecule `COC(=O)c1ccc(-c2cnc3nnc(COc4ccnc5cc(OC)ccc45)n3n2)cc1` [II-5, 3-[(7-methoxy-4-quinolyl)oxymethyl]-6-(4-methoxyformylphenyl)-[1,2,4]triazolo[4,3-b][1,2, 4]triazine], the IC50 on c-Met tyrosine kinase came out at 0.78 nM. For the same molecule, the inhibition at 10 µM with NIH3T3/TPR-Met cells was 79.2%; in the assay with NIH3T3 background cells it was 6.2%.

On c-Met tyrosine kinase, `COc1ccc2c(OCc3nnc4ncc(-c5ccc([N+](=O)[O-])cc5)nn34)ccnc2c1` [II-6, 3-[(7-methoxy-4-quinolyl)oxymethyl]-6-(4-nitrophenyl)-[1,2,4]triazolo[4,3-b][1,2,4]triazine] displayed an IC50 of 0.56 nM. Also, in the assay on NIH3T3/TPR-Met cells, the inhibition at 1 µM was 78.6%, the inhibition at 10 µM came out at 82.4% and the inhibition at 50 µM was determined as 82.3%. Moreover, in the assay on NIH3T3 background cells, the inhibition at 1 µM was 46.2%, the inhibition at 10 µM came out at 53.3% and the inhibition at 50 µM was 50.6%.

As for `COc1ccc2c(OCc3nnc4ncc(-c5ccc(OCc6ccccc6)cc5)nn34)ccnc2c1` [II-8, 3-[(7-methoxy-4-quinolyl)oxymethyl]-6-(4-benzyloxyphenyl)-[1,2,4]triazolo[4,3-b][1,2,4] triazine], at c-Met tyrosine kinase, half-maximal inhibition (IC50) was put at 32.4 nM. Besides, the inhibition at 10 µM in the assay on NIH3T3/TPR-Met cells came to 81.2%; in the assay on NIH3T3 background cells it was 7.5%.

`COc1cc2nccc(OCc3nnc4ncc(-c5ccc(F)cc5)nn34)c2cc1OC` [II-14, 3-[(6,7-dimethoxy-4-quinolyl)oxymethyl]-6-(4-fluorophenyl)-[1,2,4]triazolo[4,3-b][1,2,4] triazine]: the IC50 against c-Met tyrosine kinase is 3 nM. Moreover, the inhibition at 10 µM in the assay on NIH3T3/TPR-Met cells was 75.6%; with NIH3T3 background cells it was 0%.

Molecule `COc1cc2nccc(OCc3nnc4ncc(-c5ccc(Cl)cc5)nn34)c2cc1OC` [II-15, 3-[(6,7-dimethoxy-4-quinolyl)oxymethyl]-6-(4-chlorophenyl)-[1,2,4]triazolo[4,3-b][1,2,4] triazine] displayed an IC50 on c-Met tyrosine kinase of 182 nM. The inhibition at 10 µM stood at 22.6% in the assay with NIH3T3/TPR-Met cells and 0% with NIH3T3 background cells.

Turning to `COc1cc2nccc(OCc3nnc4ncc(-c5ccc(Br)cc5)nn34)c2cc1OC` [II-16, 3-[(6,7-dimethoxy-4-quinolyl)oxymethyl]-6-(4-bromophenyl)-[1,2,4]triazolo[4,3-b][1,2,4] triazine], half-maximal inhibition against c-Met tyrosine kinase (IC50) was put at 0.2 nM. Besides, the inhibition at 10 µM with NIH3T3/TPR-Met cells amounted to 87.9%; in the assay with NIH3T3 background cells, 56.2%.
